The values that follow come from US11001590B2, “Pyrazolopyrimidine derivatives” (BAYER ANIMAL HEALTH GMBH, priority 2016, dated 2021).

Some results are limits rather than exact numbers.

One data set deals with Dirofilaria immitis microfilariae. In words: In vitro assay 3: Dirofilaria immitis microfilariae (DIROIM L1), motility. Conditions: 72 h, reduction of motility vs negative control, 72 h incubation.
What is called EC50 is the concentration giving half of the maximal effect. `COCc1cccc(-c2c(C)nn3c(C(C)C)c(C(=O)N[C@H]4CCCc5ccccc54)cnc23)c1` [Example 344] returned an EC50 of less than 1 µg/mL.
Regarding `Cc1nn2c(C3CC3)c(C(=O)N[C@H]3CCOc4ccccc43)cnc2c1-c1cc(F)ccc1F` [Example 448], the EC50 was less than 0.1 µg/mL.
With `Cc1nn2c(C3CC3)c(C(=O)N[C@H]3CCOc4ccccc43)cnc2c1-c1ccccc1F` [Example 450], the concentration giving a half-maximal response (EC50) is less than 0.1 µg/mL.
As for `Cc1nn2c(C(C)C)c(C(=O)N[C@H]3CCc4ccccc43)cnc2c1-c1cccc(C(F)(F)F)c1` [Example 4], the EC50 is less than 1 µg/mL.
Take `Cc1nn2c(C(C)C)c(C(=O)N[C@H]3CCc4ccccc43)cnc2c1-c1cccc(N2CC(F)(F)C2)c1` [Example 364]: the EC50 was less than 1 µg/mL.
Still for that read-out and setting: the figure for `Cc1nn2c(C3CC3)c(C(=O)N[C@H]3CCOc4ccccc43)cnc2c1-c1c(F)cccc1F` [Example 445] is less than 0.1 µg/mL.
Same read-out and setting: the figure for `Cc1nn2c(C3CC3)c(C(=O)N[C@H]3CCc4ccccc43)cnc2c1-c1ccc(F)c(F)c1` [Example 358] is less than 1 µg/mL; for `Cc1nn2c(C(C)C)c(C(=O)N[C@H]3CCc4ccccc43)cnc2c1-c1cccc(F)c1Cl` [Example 165] it is less than 0.1 µg/mL.
For `CC(C)c1c(C(=O)N[C@H]2CCc3ccccc32)cnc2c(-c3c(F)cccc3F)c(C(F)F)nn12` [Example 434], the concentration for a half-maximal effect (EC50) was less than 0.1 µg/mL.
Compound `COCc1cccc(-c2c(C)nn3c(C4CC4)c(C(=O)N[C@H]4CCc5ccccc54)cnc23)c1` [Example 350] returned an EC50 of less than 0.1 µg/mL.
Same read-out and setting: the figure for `Cc1nn2c(N3CCOCC3)c(C(=O)N[C@H]3CCOc4ccccc43)cnc2c1-c1cccc(Cl)c1F` [Example 524] is less than 0.1 µg/mL.
As to `Cc1nn2c(C3CC3)c(C(=O)N[C@H]3CCc4ccccc43)cnc2c1-c1cccc(N(C)C)c1` [Example 348], the EC50 is less than 1 µg/mL.
Same read-out and setting: the figure for `CC(C)c1c(C(=O)N[C@H]2CCc3ccccc32)cnc2c(-c3c(F)cccc3F)c(C(F)(F)F)nn12` [Example 135] is less than 0.1 µg/mL; for `CC(C)c1c(C(=O)N[C@H]2CCc3ccccc32)cnc2c(-c3cncc(Cl)c3)c(C(F)(F)F)nn12` [Example 156] it is less than 10 µg/mL.
Still for that read-out and setting: under `CC(C)c1c(C(=O)N[C@H]2CCOc3ccccc32)cnc2c(-c3cc(Cl)cc(Cl)c3)c(S(=O)(=O)C(C)C)nn12` [Example 217] stands less than 10 µg/mL; under `CCN(CC)c1cccc(-c2c(C)nn3c(C(C)C)c(C(=O)N[C@H]4CCc5ccccc54)cnc23)c1` [Example 379], less than 1 µg/mL; under `Cc1nc2c(-c3cccc(Cl)c3Cl)c(C)nn2c(C)c1C(=O)N[C@H]1CCOc2ccccc21` [Example 267], less than 10 µg/mL.
`COCCn1cc(-c2c(C)nn3c(C(C)C)c(C(=O)N[C@H]4CCc5ccccc54)cnc23)cn1` [Example 375] gave an EC50 of less than 10 µg/mL.
`CCOCc1cccc(-c2c(C)nn3c(C(C)C)c(C(=O)N[C@H]4CCc5ccccc54)cnc23)c1` [Example 370]: the EC50 was less than 1 µg/mL.

The subject of a further data set is Dirofilaria immitis third-stage larvae. In words: In vitro assay 4: Dirofilaria immitis (DIROIM L4), motility of larvae. To be noted: 72 h.
Turning to `COCc1cccc(-c2c(C)nn3c(C(C)C)c(C(=O)N[C@H]4CCCc5ccccc54)cnc23)c1` [Example 344], the EC50 is less than 1 µg/mL.
On to `Cc1nn2c(C3CC3)c(C(=O)N[C@H]3CCOc4ccccc43)cnc2c1-c1cc(F)ccc1F` [Example 448], for which the EC50 is less than 0.1 µg/mL.
Still for that read-out and setting: under `Cc1nn2c(C3CC3)c(C(=O)N[C@H]3CCOc4ccccc43)cnc2c1-c1ccccc1F` [Example 450] stands less than 0.1 µg/mL; under `Cc1nn2c(C(C)C)c(C(=O)N[C@H]3CCc4ccccc43)cnc2c1-c1cccc(C(F)(F)F)c1` [Example 4], less than 1 µg/mL.
As to `Cc1nn2c(C(C)C)c(C(=O)N[C@H]3CCc4ccccc43)cnc2c1-c1cccc(N2CC(F)(F)C2)c1` [Example 364], the EC50 is less than 1 µg/mL.
On the same count and under the same terms, the figure for `Cc1nn2c(C3CC3)c(C(=O)N[C@H]3CCOc4ccccc43)cnc2c1-c1c(F)cccc1F` [Example 445] is less than 0.1 µg/mL; for `Cc1nn2c(C3CC3)c(C(=O)N[C@H]3CCc4ccccc43)cnc2c1-c1ccc(F)c(F)c1` [Example 358] it is less than 1 µg/mL; for `Cc1nn2c(C(C)C)c(C(=O)N[C@H]3CCc4ccccc43)cnc2c1-c1cccc(F)c1Cl` [Example 165] it is less than 0.1 µg/mL.
Still for that read-out and setting: the figure for `CC(C)c1c(C(=O)N[C@H]2CCc3ccccc32)cnc2c(-c3c(F)cccc3F)c(C(F)F)nn12` [Example 434] is less than 0.1 µg/mL.
The same measure, in the same setting: under `COCc1cccc(-c2c(C)nn3c(C4CC4)c(C(=O)N[C@H]4CCc5ccccc54)cnc23)c1` [Example 350] stands less than 1 µg/mL.
The compound `Cc1nn2c(N3CCOCC3)c(C(=O)N[C@H]3CCOc4ccccc43)cnc2c1-c1cccc(Cl)c1F` [Example 524] came in with an EC50 of less than 0.1 µg/mL.
Take `Cc1nn2c(C3CC3)c(C(=O)N[C@H]3CCc4ccccc43)cnc2c1-c1cccc(N(C)C)c1` [Example 348]: the EC50 is less than 1 µg/mL.

Test system in the next data set: not listed separately
The data set is described as follows: log P by HPLC on reversed phase columns (Method L0; [a] acidic, [b] neutral range).
Settings: not given
The term chromatographic logP denotes lipophilicity estimated from chromatographic retention. A low value points to a more hydrophilic compound. Compound `COCc1cccc(-c2c(C)nn3c(C(C)C)c(C(=O)N[C@H]4CCCc5ccccc54)cnc23)c1` [Example 344] yielded a chromatographic logP of 4.74.
Still for that read-out and setting: the figure for `Cc1nn2c(C3CC3)c(C(=O)N[C@H]3CCOc4ccccc43)cnc2c1-c1cc(F)ccc1F` [Example 448] is 3.61; for `Cc1nn2c(C3CC3)c(C(=O)N[C@H]3CCOc4ccccc43)cnc2c1-c1ccccc1F` [Example 450] it is 3.45.
Same read-out and setting: the figure for `Cc1nn2c(C(C)C)c(C(=O)N[C@H]3CCc4ccccc43)cnc2c1-c1cccc(C(F)(F)F)c1` [Example 4] is 5.3; for `Cc1nn2c(C(C)C)c(C(=O)N[C@H]3CCc4ccccc43)cnc2c1-c1cccc(N2CC(F)(F)C2)c1` [Example 364] it is 4.89.
Still for that read-out and setting: the figure for `Cc1nn2c(C3CC3)c(C(=O)N[C@H]3CCOc4ccccc43)cnc2c1-c1c(F)cccc1F` [Example 445] is 3.43.
`Cc1nn2c(C3CC3)c(C(=O)N[C@H]3CCc4ccccc43)cnc2c1-c1ccc(F)c(F)c1` [Example 358] came in with a chromatographic logP of 4.1.
As to `Cc1nn2c(C(C)C)c(C(=O)N[C@H]3CCc4ccccc43)cnc2c1-c1cccc(F)c1Cl` [Example 165], the chromatographic logP came to 4.74.
On the same count and under the same terms, under `CC(C)c1c(C(=O)N[C@H]2CCc3ccccc32)cnc2c(-c3c(F)cccc3F)c(C(F)F)nn12` [Example 434] stands 4.23.
As to `COCc1cccc(-c2c(C)nn3c(C4CC4)c(C(=O)N[C@H]4CCc5ccccc54)cnc23)c1` [Example 350], the chromatographic logP turned out to be 3.65.
For `Cc1nn2c(N3CCOCC3)c(C(=O)N[C@H]3CCOc4ccccc43)cnc2c1-c1cccc(Cl)c1F` [Example 524], the chromatographic logP was 4.69.
Regarding `Cc1nn2c(C3CC3)c(C(=O)N[C@H]3CCc4ccccc43)cnc2c1-c1cccc(N(C)C)c1` [Example 348], the chromatographic logP stood at 2.98.
The compound `CC(C)c1c(C(=O)N[C@H]2CCc3ccccc32)cnc2c(-c3c(F)cccc3F)c(C(F)(F)F)nn12` [Example 135] returned a chromatographic logP of 4.81.
Take `CC(C)c1c(C(=O)N[C@H]2CCc3ccccc32)cnc2c(-c3cncc(Cl)c3)c(C(F)(F)F)nn12` [Example 156]: the chromatographic logP is 4.7.
Same read-out and setting: the figure for `CC(C)c1c(C(=O)N[C@H]2CCOc3ccccc32)cnc2c(-c3cc(Cl)cc(Cl)c3)c(S(=O)(=O)C(C)C)nn12` [Example 217] is 4.57; for `CCN(CC)c1cccc(-c2c(C)nn3c(C(C)C)c(C(=O)N[C@H]4CCc5ccccc54)cnc23)c1` [Example 379] it is 2.81.
Same read-out and setting: the figure for `Cc1nc2c(-c3cccc(Cl)c3Cl)c(C)nn2c(C)c1C(=O)N[C@H]1CCOc2ccccc21` [Example 267] is 3.86; for `COCCn1cc(-c2c(C)nn3c(C(C)C)c(C(=O)N[C@H]4CCc5ccccc54)cnc23)cn1` [Example 375] it is 3.26.
On the same count and under the same terms, the figure for `CCOCc1cccc(-c2c(C)nn3c(C(C)C)c(C(=O)N[C@H]4CCc5ccccc54)cnc23)c1` [Example 370] is 4.86.

The target in another data set is C. elegans Slo-1a (Caenorhabditis elegans, UniProt Q95V25). The data set is described as follows: In vitro assay 1: C. elegans Slo-1a, action at a recombinant C. elegans CHO cell line (membrane potential measurement).
Chain of C. elegans Slo-1a (Q95V25 whole entry): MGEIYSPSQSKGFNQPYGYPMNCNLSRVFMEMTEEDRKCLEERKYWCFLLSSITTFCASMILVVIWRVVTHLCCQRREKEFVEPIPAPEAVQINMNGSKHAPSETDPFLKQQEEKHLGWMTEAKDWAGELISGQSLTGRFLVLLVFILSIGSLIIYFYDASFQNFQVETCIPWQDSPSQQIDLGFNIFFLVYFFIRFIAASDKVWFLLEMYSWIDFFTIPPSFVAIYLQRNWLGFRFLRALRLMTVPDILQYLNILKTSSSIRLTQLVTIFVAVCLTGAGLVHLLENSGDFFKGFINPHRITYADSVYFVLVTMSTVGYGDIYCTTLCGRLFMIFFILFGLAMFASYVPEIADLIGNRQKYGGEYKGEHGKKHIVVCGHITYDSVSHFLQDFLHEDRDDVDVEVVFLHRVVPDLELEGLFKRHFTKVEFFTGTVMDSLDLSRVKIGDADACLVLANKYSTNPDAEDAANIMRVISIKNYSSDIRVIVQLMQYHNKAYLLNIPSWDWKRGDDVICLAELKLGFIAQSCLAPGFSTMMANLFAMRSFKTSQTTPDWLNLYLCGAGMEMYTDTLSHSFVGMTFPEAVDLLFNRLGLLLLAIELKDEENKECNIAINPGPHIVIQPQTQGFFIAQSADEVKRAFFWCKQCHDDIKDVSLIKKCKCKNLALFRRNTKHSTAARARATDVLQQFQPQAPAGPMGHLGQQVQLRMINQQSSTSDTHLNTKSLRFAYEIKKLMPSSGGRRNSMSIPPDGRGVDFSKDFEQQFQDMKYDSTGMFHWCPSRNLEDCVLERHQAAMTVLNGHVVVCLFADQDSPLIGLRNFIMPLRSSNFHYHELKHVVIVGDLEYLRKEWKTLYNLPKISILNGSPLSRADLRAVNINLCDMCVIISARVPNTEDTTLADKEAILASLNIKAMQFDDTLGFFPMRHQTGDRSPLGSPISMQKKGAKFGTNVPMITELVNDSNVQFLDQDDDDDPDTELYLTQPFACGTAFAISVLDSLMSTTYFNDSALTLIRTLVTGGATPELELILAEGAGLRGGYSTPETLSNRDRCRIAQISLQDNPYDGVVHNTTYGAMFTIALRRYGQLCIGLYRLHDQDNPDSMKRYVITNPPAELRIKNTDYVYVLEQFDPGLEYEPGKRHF
Settings: not given
For `COCc1cccc(-c2c(C)nn3c(C(C)C)c(C(=O)N[C@H]4CCCc5ccccc54)cnc23)c1` [Example 344], the EC50 was 7.94 nM.
For the compound `Cc1nn2c(C3CC3)c(C(=O)N[C@H]3CCOc4ccccc43)cnc2c1-c1cc(F)ccc1F` [Example 448], the EC50 was 3.16 nM.
The same measure, in the same setting: the figure for `Cc1nn2c(C3CC3)c(C(=O)N[C@H]3CCOc4ccccc43)cnc2c1-c1ccccc1F` [Example 450] is 3.16 nM; for `Cc1nn2c(C(C)C)c(C(=O)N[C@H]3CCc4ccccc43)cnc2c1-c1cccc(C(F)(F)F)c1` [Example 4] it is 31.6 nM.
Still for that read-out and setting: under `Cc1nn2c(C(C)C)c(C(=O)N[C@H]3CCc4ccccc43)cnc2c1-c1cccc(N2CC(F)(F)C2)c1` [Example 364] stands 10 nM.
The same measure, in the same setting: the figure for `Cc1nn2c(C3CC3)c(C(=O)N[C@H]3CCOc4ccccc43)cnc2c1-c1c(F)cccc1F` [Example 445] is 2 nM; for `Cc1nn2c(C3CC3)c(C(=O)N[C@H]3CCc4ccccc43)cnc2c1-c1ccc(F)c(F)c1` [Example 358] it is 12.6 nM; for `Cc1nn2c(C(C)C)c(C(=O)N[C@H]3CCc4ccccc43)cnc2c1-c1cccc(F)c1Cl` [Example 165] it is 2 nM.
On to `CC(C)c1c(C(=O)N[C@H]2CCc3ccccc32)cnc2c(-c3c(F)cccc3F)c(C(F)F)nn12` [Example 434], for which the EC50 is 7.94 nM.
On to `COCc1cccc(-c2c(C)nn3c(C4CC4)c(C(=O)N[C@H]4CCc5ccccc54)cnc23)c1` [Example 350], for which the EC50 is 10 nM.
Take `Cc1nn2c(N3CCOCC3)c(C(=O)N[C@H]3CCOc4ccccc43)cnc2c1-c1cccc(Cl)c1F` [Example 524]: the EC50 is 1.26 nM.
Still for that read-out and setting: under `Cc1nn2c(C3CC3)c(C(=O)N[C@H]3CCc4ccccc43)cnc2c1-c1cccc(N(C)C)c1` [Example 348] stands 3.98 nM.
On the same count and under the same terms, the figure for `CC(C)c1c(C(=O)N[C@H]2CCc3ccccc32)cnc2c(-c3c(F)cccc3F)c(C(F)(F)F)nn12` [Example 135] is 126 nM; for `CC(C)c1c(C(=O)N[C@H]2CCc3ccccc32)cnc2c(-c3cncc(Cl)c3)c(C(F)(F)F)nn12` [Example 156] it is 631 nM; for `CC(C)c1c(C(=O)N[C@H]2CCOc3ccccc32)cnc2c(-c3cc(Cl)cc(Cl)c3)c(S(=O)(=O)C(C)C)nn12` [Example 217] it is 398 nM.
Turning to `CCN(CC)c1cccc(-c2c(C)nn3c(C(C)C)c(C(=O)N[C@H]4CCc5ccccc54)cnc23)c1` [Example 379], the EC50 is 100 nM.
`Cc1nc2c(-c3cccc(Cl)c3Cl)c(C)nn2c(C)c1C(=O)N[C@H]1CCOc2ccccc21` [Example 267]: the EC50 is 158 nM.
`COCCn1cc(-c2c(C)nn3c(C(C)C)c(C(=O)N[C@H]4CCc5ccccc54)cnc23)cn1` [Example 375]: the EC50 is 200 nM.
Still for that read-out and setting: the figure for `CCOCc1cccc(-c2c(C)nn3c(C(C)C)c(C(=O)N[C@H]4CCc5ccccc54)cnc23)c1` [Example 370] is 15.8 nM.
